Results from patent US20170136008A1, “OXABICYCLOHEPTANES AND OXABICYCLOHEPTENES FOR THE TREATMENT OF OVARIAN CANCER” (priority 2014, published 2017).

How the values were obtained:
Type in all cases: cell-based, human
[1] = tested on: OVCAR-8 ovarian cancer cells; assay: MTT cytotoxicity assay, OVCAR-8; conditions: OVCAR8, read-out: IC50, viability of ovarian cancer cell line
Protocol: (§1) SKOV-3 ovarian cancer cells were purchased from American Type Culture Collection (ATCC) (Manassas, Va.). SKOV-3 cells were cultured in McCoy's 5A medium (ATCC, Manassas, Va.) supplemented with 10% fetal bovine serum and 100 units/mL penicillin G sodium, 100 ug/mL streptomycin sulfate, and 292 μg/ml, L-glutamine (BioWhittaker, Wakersville, Md.). Luciferase-expressing cells were generated by infecting SKOV-3 cells with pCLNCX-luciferase retrovirus (SKOV-3-Luc) as previously reported (Wei, B. R. et al. 2009). Human OVCAR-8 ovarian cancer cells were provided by the National Cancer Institute (part of the NCI-60 collection). The PEO1, PEO4, and PEO6 ovarian cancer cell lines have previously been characterized (Langdon, S. P. et al. 1988) and were kindly provided by Dr. Ian Goldlust (National Center for Advancing Translational Sciences, Shady Grove, Md.). […]
(§2) Cell survival was measured by the 3-(4,5-dimethylthiazol-2-yl)-2,5-diphenyltetrazolium bromide (MTT, Invitrogen) assay. […] Absorbance values were determined at […] on a Spectra Max 250 spectrophotometer (Molecular Devices, Sunnyvale, Calif.). […] Cell viability was analyzed via the MTT assay as described above. […]

[2] = tested on: PEO6 ovarian cancer cell line; assay: MTT cytotoxicity assay, PEO6; conditions: read-out: IC50, viability of ovarian cancer cell line
Protocol: as §1, §2

SKOV-3 cells = assay: Cell-cycle analysis (FACS), SKOV-3
Protocol: (§3) For cell-cycle analysis, cells were washed with PBS and fixed overnight in ice-cold 70% ethanol and stored at 4° C. Cells were then centrifuged and resuspended in 100 U RNAse (Sigma-Aldrich), and incubated at 37° C. for 20 min. Propidiumidodide solution (Invitrogen, 500 μL, 50 μg/mL in DPBS) was added to each tube and incubated in the dark at 4° C. overnight. Flow cytometry analysis was performed with CellQuestPro and data analysis was completed with ModFit LT. All data is in triplicate and presented as a percent mean±SD.

[3] = tested on: PEO1-Missense (PEO-1m) ovarian cancer cell line; assay: MTT cytotoxicity assay, PEO1-Missense; conditions: PEO1-Missense; MTT; read-out: IC50, viability of ovarian cancer cell line
Protocol: as §1, §2

[4] = tested on: PEO1-STOP (PEO-1s) ovarian cancer cell line; assay: MTT cytotoxicity assay, PEO1-STOP; conditions: PEO1-STOP; MTT; read-out: IC50, viability of ovarian cancer cell line
Protocol: as §1, §2

[5] = tested on: SKOV-3 ovarian cancer cells; assay: MTT cytotoxicity assay, SKOV-3; conditions: SK-OV3; MTT; read-out: IC50, viability of ovarian cancer cell line
[6] = tested on: OVCAR-8 PP2Ac shRNA-expressing cells; assay: Cell viability (MTT) assay, OVCAR-8 PP2Ac shRNA; conditions: OVCAR-8 PP2Ac shRNA
Protocol: Cell survival was measured by the 3-(4,5-dimethylthiazol-2-yl)-2,5-diphenyltetrazolium bromide (MTT, Invitrogen) assay. Cells were seeded at a density of 5,000 cells per well in 96-well plates and incubated at 37° C. in humidified 5% CO2 for 24 hours. The 50% inhibitory concentration (IC50) values were defined as the drug concentrations required to reduce cellular proliferation to 50% of the untreated control well. […] All MTT assays were carried out according to the manufacturer's instructions (Molecular Probes, Eugen, Oreg.). Absorbance values were determined at […] on a Spectra Max 250 spectrophotometer (Molecular Devices, Sunnyvale, Calif.). All MTT assays were performed in triplicate. […] Cells were treated with both drugs for 72 h. Cell viability was analyzed via the MTT assay as described above. Experiments were performed in triplicate, and the data are presented as a percent mean±SD.
To stably knockdown expression of PP2AC, a pLKO.1-puro plasmid-based […] shRNA targeting the sequence: […] (clone ID:TRCN0000002483, Sigma-Aldrich) was employed (PP2AC-shRNA). Additionally, a non-targeting shRNA plasmid (NT-shRNA) that targets no known human sequence was utilized as a control. […]

[7] = tested on: PEO4 ovarian cancer cell line; assay: MTT cytotoxicity assay, PEO4; conditions: PEO4; MTT; read-out: IC50, viability of ovarian cancer cell line
Protocol: as §1, §2

OVCAR-8 cells = assay: Cell-cycle analysis (FACS), OVCAR-8; conditions: cisplatin 5 μM
Protocol: as §3

Compound: N.N.[Cl][Pt][Cl] [Cisplatin, cis-[PtCl2(NH3)2], reference compound]
- IC50 [1]: 7.2 ± 2.3 µM
- IC50 [2]: 8 ± 1.9 µM
- G1 (%) (SKOV-3 cells; 24 h, cisplatin 2 μM): 23.0 ± 0.2%
- G2/M (%) (SKOV-3 cells; 24 h, cisplatin 2 μM): 8.4 ± 0.3%
- S (%) (SKOV-3 cells; 24 h, cisplatin 2 μM): 68.6 ± 0.1%
- G1 (%) (SKOV-3 cells; 24 h, cisplatin 5 μM): 11.6 ± 0.5%
- G2/M (%) (SKOV-3 cells; 24 h, cisplatin 5 μM): 13.5 ± 0.7%
- S (%) (SKOV-3 cells; 24 h, cisplatin 5 μM): 75.2 ± 1.0%
- G1 (%) (SKOV-3 cells; 24 h, cisplatin 18 μM): 49.8 ± 2.3%
- G2/M (%) (SKOV-3 cells; 24 h, cisplatin 18 μM): 16.6 ± 1.3%
- S (%) (SKOV-3 cells; 24 h, cisplatin 18 μM): 33.6 ± 1.8%
- S (%) (SKOV-3 cells; 24 h, cisplatin 18 μM, listed as cisplatin): 33±2%
- G1 (%) (SKOV-3 cells; 24 h, cisplatin 20 μM): 67.7 ± 1.2%
- G2/M (%) (SKOV-3 cells; 24 h, cisplatin 20 μM): 16.3 ± 0.9%
- S (%) (SKOV-3 cells; 24 h, cisplatin 20 μM): 16.0 ± 1.2%
- G1 (%) (SKOV-3 cells; 48 h, cisplatin 18 μM): 40.4 ± 0.8%
- G2/M (%) (SKOV-3 cells; 48 h, cisplatin 18 μM): 21.2 ± 1.0%
- S (%) (SKOV-3 cells; 48 h, cisplatin 18 μM): 38.4 ± 0.5%
- IC50 [3]: 2.1 ± 0.4 µM
- IC50 [4]: 2.3 ± 0.3 µM
- IC50 [5]: 7.6 ± 1.6 µM
- sensitivity to cisplatin, PP2Ac knockdown compared to non-targeted control [6]: sensitized
- IC50 [7]: 4.3 ± 1.8 µM
- G1 (%) (OVCAR-8 cells; 24 h): 4.6 ± 2.0%
- G2/M (%) (OVCAR-8 cells; 24 h): 13.4 ± 0.6%
- S (%) (OVCAR-8 cells; 24 h): 81.9 ± 1.6%
- G1 (%) (OVCAR-8 cells; 48 h): 0.85 ± 0.3%
- G2/M (%) (OVCAR-8 cells; 48 h): 78.5 ± 2.2%
- S (%) (OVCAR-8 cells; 48 h): 20.7 ± 2.1%
